# Read-outs that look alike come from different tables or passages of the source.
# How the values were obtained:
# Type in all cases: biochemical
# [1] = target: 320 wild-type protein kinases (Homo sapiens, UniProt Q9Y243); settings: singlicate
# Description: (§1) Table S4. Profiling of two compounds at two concentrations against 320 wild-type protein kinases; singlicate measurement; Residual activities (% of control).
# [2] = target: 320 wild-type protein kinases (Homo sapiens, UniProt Q9P286); settings: singlicate
# Description: as §1
# [3] = target: 320 wild-type protein kinases (Homo sapiens, UniProt P09619); settings: PDGFR-beta, singlicate
# Description: as §1
# [4] = target: 320 wild-type protein kinases (Homo sapiens, UniProt Q13557); settings: CAMK2D, singlicate
# Description: as §1
# [5] = target: 320 wild-type protein kinases (Homo sapiens, UniProt Q15746); settings: MYLK, singlicate
# Description: as §1
# [6] = target: 320 wild-type protein kinases (Homo sapiens, UniProt P53350); settings: singlicate
# Description: as §1
# [7] = target: T1, 320 wild-type protein kinases (Homo sapiens, UniProt Q9UEE5); settings: kinase STK17A, singlicate
# T1 sequence (Q9UEE5 1-414): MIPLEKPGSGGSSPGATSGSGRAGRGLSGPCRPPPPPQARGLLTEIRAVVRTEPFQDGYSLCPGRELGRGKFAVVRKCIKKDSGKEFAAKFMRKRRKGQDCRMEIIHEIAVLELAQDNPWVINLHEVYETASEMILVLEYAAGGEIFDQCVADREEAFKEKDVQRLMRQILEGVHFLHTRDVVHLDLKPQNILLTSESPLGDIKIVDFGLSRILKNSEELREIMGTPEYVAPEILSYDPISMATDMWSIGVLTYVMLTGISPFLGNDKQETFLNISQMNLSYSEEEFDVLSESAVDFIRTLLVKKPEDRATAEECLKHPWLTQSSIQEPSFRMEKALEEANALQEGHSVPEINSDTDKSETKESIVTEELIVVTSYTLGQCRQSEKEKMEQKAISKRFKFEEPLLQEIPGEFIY
# Description: as §1
# [8] = target: 320 wild-type protein kinases (Homo sapiens, UniProt O75716); settings: kinase TSF1, singlicate
# Description: as §1
# [9] = target: 320 wild-type protein kinases (Homo sapiens, UniProt Q13627); settings: DYRK1A, singlicate
# Description: as §1
# [10] = target: T2, 320 wild-type protein kinases (Homo sapiens, UniProt O43781); settings: singlicate
# T2 sequence (O43781 1-588): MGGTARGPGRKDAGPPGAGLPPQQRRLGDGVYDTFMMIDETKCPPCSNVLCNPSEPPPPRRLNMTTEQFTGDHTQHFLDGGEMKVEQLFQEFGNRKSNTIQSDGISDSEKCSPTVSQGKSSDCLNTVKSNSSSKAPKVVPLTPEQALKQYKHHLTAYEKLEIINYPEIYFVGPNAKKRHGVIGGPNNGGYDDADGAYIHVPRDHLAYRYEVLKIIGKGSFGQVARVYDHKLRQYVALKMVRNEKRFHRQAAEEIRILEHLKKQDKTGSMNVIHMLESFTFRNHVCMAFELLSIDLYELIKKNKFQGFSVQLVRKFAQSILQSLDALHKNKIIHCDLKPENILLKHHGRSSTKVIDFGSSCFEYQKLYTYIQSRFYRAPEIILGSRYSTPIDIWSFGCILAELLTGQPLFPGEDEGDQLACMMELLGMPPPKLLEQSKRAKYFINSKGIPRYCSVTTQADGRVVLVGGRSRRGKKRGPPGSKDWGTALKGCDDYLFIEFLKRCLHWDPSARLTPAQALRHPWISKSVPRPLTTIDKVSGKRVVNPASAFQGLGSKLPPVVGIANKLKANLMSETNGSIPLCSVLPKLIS
# Description: as §1
# [11] = target: T3, 320 wild-type protein kinases (Homo sapiens, UniProt O15264); settings: p38-delta, singlicate
# T3 sequence (O15264 1-365): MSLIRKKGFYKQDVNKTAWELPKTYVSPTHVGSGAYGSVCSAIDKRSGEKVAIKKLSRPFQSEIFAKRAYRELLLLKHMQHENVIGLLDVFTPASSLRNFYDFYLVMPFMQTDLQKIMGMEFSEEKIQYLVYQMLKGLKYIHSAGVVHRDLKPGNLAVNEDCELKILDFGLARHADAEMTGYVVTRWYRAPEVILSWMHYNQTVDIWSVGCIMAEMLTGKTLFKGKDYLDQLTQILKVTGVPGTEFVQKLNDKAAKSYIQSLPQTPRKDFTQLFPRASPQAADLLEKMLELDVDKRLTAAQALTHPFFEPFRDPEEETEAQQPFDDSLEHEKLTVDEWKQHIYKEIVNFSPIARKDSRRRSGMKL
# Description: as §1
# [12] = target: 320 wild-type protein kinases (Homo sapiens, UniProt P14616); settings: INSR-R, singlicate
# Description: as §1
# [13] = target: 320 wild-type protein kinases (Homo sapiens, UniProt P31751); settings: singlicate
# Description: as §1
# [14] = target: 320 wild-type protein kinases (Homo sapiens, UniProt P16591); settings: FER, singlicate
# Description: as §1
# [15] = target: 320 wild-type protein kinases (Homo sapiens, UniProt P49841); settings: GSK3-beta, singlicate
# Description: as §1
# [16] = target: 320 wild-type protein kinases (Homo sapiens, UniProt Q13555); settings: CAMK2G, singlicate
# Description: as §1
# Chain of 320 wild-type protein kinases (Homo sapiens, UniProt Q13555) (Q13555 whole entry): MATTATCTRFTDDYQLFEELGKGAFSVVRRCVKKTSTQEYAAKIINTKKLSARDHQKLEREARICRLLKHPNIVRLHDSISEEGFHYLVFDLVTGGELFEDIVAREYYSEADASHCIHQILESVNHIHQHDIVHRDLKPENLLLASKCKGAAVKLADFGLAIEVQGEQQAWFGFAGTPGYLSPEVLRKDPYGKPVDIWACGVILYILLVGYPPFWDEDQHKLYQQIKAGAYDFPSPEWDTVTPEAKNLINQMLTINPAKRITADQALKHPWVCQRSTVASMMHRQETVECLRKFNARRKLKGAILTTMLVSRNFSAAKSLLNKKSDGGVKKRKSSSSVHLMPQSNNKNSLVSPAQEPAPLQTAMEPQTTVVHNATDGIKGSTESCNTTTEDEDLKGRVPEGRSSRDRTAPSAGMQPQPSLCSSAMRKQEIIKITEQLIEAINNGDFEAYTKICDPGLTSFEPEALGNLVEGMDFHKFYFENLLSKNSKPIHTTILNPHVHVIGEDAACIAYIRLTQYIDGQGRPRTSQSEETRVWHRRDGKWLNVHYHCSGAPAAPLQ
# Chain of 320 wild-type protein kinases (Homo sapiens, UniProt P09619) (P09619 33-1106): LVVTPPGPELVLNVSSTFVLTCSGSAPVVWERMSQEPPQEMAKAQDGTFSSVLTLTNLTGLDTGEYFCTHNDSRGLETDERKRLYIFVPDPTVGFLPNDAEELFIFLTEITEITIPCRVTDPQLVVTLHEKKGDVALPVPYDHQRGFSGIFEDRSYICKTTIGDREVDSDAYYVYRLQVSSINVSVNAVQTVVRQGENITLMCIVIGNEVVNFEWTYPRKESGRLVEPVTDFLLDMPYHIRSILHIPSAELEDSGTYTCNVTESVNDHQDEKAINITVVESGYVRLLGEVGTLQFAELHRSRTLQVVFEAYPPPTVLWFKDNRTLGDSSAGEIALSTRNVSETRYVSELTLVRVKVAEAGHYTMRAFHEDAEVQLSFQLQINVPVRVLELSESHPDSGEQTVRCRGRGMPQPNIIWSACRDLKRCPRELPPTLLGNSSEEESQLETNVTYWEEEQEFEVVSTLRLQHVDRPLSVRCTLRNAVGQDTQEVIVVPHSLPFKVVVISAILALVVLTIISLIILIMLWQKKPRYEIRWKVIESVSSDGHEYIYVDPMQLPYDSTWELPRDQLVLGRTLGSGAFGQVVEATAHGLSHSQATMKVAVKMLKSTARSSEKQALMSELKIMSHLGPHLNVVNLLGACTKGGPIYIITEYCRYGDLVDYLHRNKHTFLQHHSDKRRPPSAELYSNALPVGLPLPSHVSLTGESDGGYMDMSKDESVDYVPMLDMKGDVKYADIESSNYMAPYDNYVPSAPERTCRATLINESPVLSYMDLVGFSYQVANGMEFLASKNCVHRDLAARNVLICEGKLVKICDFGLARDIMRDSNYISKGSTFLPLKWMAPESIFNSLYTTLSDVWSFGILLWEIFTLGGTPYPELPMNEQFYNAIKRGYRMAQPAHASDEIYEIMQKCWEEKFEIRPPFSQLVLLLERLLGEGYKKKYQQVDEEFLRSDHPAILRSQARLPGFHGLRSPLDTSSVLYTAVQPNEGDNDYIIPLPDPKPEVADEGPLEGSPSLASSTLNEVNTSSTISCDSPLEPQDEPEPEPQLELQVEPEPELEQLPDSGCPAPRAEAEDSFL
# Chain of 320 wild-type protein kinases (Homo sapiens, UniProt P16591) (P16591 whole entry): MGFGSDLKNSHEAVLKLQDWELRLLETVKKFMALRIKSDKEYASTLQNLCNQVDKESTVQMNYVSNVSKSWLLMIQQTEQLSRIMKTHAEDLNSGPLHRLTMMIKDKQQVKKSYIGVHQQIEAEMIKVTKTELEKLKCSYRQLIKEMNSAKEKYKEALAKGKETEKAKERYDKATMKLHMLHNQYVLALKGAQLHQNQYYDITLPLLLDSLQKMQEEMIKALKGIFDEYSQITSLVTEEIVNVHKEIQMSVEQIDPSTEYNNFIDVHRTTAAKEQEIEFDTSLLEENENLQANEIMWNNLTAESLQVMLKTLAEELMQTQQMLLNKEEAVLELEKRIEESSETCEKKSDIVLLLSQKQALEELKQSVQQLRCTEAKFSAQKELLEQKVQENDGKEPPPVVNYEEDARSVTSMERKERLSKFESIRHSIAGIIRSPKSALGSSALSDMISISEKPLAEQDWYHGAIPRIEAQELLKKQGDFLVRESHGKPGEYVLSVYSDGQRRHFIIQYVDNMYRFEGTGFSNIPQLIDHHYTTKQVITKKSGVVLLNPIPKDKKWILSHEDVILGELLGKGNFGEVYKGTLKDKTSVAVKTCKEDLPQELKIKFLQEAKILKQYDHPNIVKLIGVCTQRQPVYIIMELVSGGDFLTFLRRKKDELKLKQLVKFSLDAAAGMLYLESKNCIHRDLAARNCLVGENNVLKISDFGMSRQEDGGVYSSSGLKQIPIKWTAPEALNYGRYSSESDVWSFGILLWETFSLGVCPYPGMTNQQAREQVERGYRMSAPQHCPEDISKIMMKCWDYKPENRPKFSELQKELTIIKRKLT
# Chain of 320 wild-type protein kinases (Homo sapiens, UniProt Q15746) (Q15746 whole entry): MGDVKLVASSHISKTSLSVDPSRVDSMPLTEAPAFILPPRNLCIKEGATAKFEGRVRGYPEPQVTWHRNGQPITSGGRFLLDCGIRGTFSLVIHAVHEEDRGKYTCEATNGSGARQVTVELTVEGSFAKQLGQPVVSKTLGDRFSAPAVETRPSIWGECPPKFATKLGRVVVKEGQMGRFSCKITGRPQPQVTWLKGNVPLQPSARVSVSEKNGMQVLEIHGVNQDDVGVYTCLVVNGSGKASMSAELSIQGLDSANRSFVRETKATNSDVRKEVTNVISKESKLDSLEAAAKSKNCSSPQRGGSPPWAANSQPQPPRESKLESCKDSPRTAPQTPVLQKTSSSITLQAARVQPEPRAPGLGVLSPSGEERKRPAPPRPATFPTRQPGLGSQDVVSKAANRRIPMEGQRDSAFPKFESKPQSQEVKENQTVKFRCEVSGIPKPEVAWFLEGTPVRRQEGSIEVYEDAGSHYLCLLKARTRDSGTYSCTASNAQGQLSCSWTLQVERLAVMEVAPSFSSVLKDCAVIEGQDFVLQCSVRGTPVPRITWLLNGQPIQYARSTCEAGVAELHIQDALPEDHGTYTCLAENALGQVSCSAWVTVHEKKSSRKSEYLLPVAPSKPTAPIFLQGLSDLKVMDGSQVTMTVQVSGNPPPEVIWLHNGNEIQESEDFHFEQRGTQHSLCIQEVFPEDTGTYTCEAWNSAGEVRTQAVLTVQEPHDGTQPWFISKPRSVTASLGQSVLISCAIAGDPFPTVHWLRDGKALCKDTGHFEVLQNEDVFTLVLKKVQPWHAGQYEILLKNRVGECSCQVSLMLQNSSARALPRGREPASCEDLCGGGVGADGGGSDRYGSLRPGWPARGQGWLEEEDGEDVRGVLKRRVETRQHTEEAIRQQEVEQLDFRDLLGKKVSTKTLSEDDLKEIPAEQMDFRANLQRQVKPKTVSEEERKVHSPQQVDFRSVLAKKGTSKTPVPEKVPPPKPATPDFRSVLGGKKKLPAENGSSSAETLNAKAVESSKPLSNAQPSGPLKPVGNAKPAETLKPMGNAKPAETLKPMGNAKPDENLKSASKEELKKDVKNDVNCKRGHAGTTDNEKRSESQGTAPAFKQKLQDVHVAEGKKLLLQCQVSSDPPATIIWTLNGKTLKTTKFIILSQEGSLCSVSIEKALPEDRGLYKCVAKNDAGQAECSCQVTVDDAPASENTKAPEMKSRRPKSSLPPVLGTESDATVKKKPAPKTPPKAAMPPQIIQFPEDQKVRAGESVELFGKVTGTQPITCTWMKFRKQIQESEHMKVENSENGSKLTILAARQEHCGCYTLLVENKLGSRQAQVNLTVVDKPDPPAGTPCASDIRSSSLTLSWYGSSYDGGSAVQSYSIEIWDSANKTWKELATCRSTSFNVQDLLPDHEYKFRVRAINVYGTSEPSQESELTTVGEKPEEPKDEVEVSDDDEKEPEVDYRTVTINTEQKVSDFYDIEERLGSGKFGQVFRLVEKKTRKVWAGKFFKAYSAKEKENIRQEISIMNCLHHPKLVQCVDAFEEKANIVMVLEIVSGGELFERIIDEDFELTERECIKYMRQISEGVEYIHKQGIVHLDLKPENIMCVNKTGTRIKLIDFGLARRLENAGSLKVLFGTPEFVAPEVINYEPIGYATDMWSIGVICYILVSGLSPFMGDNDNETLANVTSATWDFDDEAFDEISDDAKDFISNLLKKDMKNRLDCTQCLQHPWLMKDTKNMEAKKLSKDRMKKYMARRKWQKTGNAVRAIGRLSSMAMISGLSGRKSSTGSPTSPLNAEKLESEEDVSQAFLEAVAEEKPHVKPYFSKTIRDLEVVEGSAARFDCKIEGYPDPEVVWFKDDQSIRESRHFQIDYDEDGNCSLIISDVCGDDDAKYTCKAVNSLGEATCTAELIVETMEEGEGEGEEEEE
# Chain of 320 wild-type protein kinases (Homo sapiens, UniProt P49841) (P49841 whole entry): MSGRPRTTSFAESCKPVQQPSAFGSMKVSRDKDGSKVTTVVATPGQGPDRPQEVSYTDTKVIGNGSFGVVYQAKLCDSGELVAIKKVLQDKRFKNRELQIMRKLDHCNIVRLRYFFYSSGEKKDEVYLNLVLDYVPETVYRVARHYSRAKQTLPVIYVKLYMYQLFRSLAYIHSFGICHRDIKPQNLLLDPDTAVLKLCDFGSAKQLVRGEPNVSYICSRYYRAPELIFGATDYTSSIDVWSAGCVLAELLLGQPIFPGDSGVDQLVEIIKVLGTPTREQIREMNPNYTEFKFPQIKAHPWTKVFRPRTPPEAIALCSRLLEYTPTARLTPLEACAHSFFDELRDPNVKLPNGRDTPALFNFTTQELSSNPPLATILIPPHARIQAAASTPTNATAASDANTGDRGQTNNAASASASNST
# Chain of 320 wild-type protein kinases (Homo sapiens, UniProt O75716) (O75716 whole entry): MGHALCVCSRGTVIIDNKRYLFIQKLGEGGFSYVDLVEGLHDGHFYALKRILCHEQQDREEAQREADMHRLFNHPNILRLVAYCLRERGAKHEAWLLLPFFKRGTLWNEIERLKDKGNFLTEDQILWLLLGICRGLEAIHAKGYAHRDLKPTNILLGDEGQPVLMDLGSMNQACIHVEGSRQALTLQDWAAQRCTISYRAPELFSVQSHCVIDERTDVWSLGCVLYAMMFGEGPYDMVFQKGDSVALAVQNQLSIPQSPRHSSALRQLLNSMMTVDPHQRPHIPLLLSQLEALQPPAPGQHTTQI
structure (smiles),measurement,setting,value
C#Cc1cc(Nc2ncnc3cc(I)ccc23)ccc1Cl [Compound 41],Residual activity,"[1]; AKT3 aa106-479, 1.0E-06 M",97 % of control
same,Residual activity,"[1]; AKT3 aa106-479, 1.0E-07 M",94 % of control
same,Residual activity,"[2]; PAK7, 1.0E-06 M",81 % of control
same,Residual activity,"[2]; PAK7, 1.0E-07 M",108 % of control
same,Residual activity,[3]; 1.0E-06 M,98 % of control
same,Residual activity,[3]; 1.0E-07 M,114 % of control
same,Residual activity,[4]; 1.0E-06 M,89 % of control
same,Residual activity,[4]; 1.0E-07 M,103 % of control
same,Residual activity,[5]; 1.0E-06 M,58 % of control
same,Residual activity,[5]; 1.0E-07 M,98 % of control
same,Residual activity,"[6]; PLK1, 1.0E-06 M",98 % of control
same,Residual activity,"[6]; PLK1, 1.0E-07 M",98 % of control
same,"Residual activity, STK17A",[7]; assay conc. 1.0E-06 M,103 % of control
same,"Residual activity, STK17A",[7]; assay conc. 1.0E-07 M,104 % of control
same,"Residual activity, TSF1",[8]; assay conc. 1.0E-06 M,94 % of control
same,"Residual activity, TSF1",[8]; assay conc. 1.0E-07 M,93 % of control
same,Residual activity,[9]; 1.0E-06 M,75 % of control
same,Residual activity,[9]; 1.0E-07 M,84 % of control
same,Residual activity,"[10]; DYRK3, 1.0E-06 M",81 % of control
same,Residual activity,"[10]; DYRK3, 1.0E-07 M",96 % of control
same,Residual activity,[11]; 1.0E-06 M,94 % of control
same,Residual activity,[11]; 1.0E-07 M,112 % of control
same,Residual activity,[12]; 1.0E-06 M,93 % of control
same,Residual activity,[12]; 1.0E-07 M,96 % of control
same,Residual activity,"[13]; AKT2 aa107-481, 1.0E-06 M",86 % of control
same,Residual activity,"[13]; AKT2 aa107-481, 1.0E-07 M",98 % of control
same,Residual activity,[14]; 1.0E-06 M,110 % of control
same,Residual activity,[14]; 1.0E-07 M,113 % of control
same,Residual activity,[15]; 1.0E-06 M,84 % of control
same,Residual activity,[15]; 1.0E-07 M,96 % of control
same,Residual activity,[16]; 1.0E-06 M,93 % of control
same,Residual activity,[16]; 1.0E-07 M,118 % of control
C#Cc1cc(Nc2ncnc3cc(OC)c(OC)cc23)ccc1Cl [Compound 45],Residual activity,"[1]; AKT3 aa106-479, 1.0E-06 M",101 % of control
same,Residual activity,"[1]; AKT3 aa106-479, 1.0E-07 M",96 % of control
same,Residual activity,"[2]; PAK7, 1.0E-06 M",91 % of control
same,Residual activity,"[2]; PAK7, 1.0E-07 M",99 % of control
same,Residual activity,[3]; 1.0E-06 M,95 % of control
same,Residual activity,[3]; 1.0E-07 M,107 % of control
same,Residual activity,[4]; 1.0E-06 M,95 % of control
same,Residual activity,[4]; 1.0E-07 M,91 % of control
same,Residual activity,[5]; 1.0E-06 M,71 % of control
same,Residual activity,[5]; 1.0E-07 M,92 % of control
same,Residual activity,"[6]; PLK1, 1.0E-06 M",77 % of control
same,Residual activity,"[6]; PLK1, 1.0E-07 M",91 % of control
same,"Residual activity, STK17A",[7]; assay conc. 1.0E-06 M,83 % of control
same,"Residual activity, STK17A",[7]; assay conc. 1.0E-07 M,102 % of control
same,"Residual activity, TSF1",[8]; assay conc. 1.0E-06 M,104 % of control
same,"Residual activity, TSF1",[8]; assay conc. 1.0E-07 M,95 % of control
same,Residual activity,[9]; 1.0E-06 M,91 % of control
same,Residual activity,[9]; 1.0E-07 M,85 % of control
same,Residual activity,"[10]; DYRK3, 1.0E-06 M",69 % of control
same,Residual activity,"[10]; DYRK3, 1.0E-07 M",97 % of control
same,Residual activity,[11]; 1.0E-06 M,94 % of control
same,Residual activity,[11]; 1.0E-07 M,111 % of control
same,Residual activity,[12]; 1.0E-06 M,99 % of control
same,Residual activity,[12]; 1.0E-07 M,103 % of control
same,Residual activity,"[13]; AKT2 aa107-481, 1.0E-06 M",94 % of control
same,Residual activity,"[13]; AKT2 aa107-481, 1.0E-07 M",112 % of control
same,Residual activity,[14]; 1.0E-06 M,93 % of control
same,Residual activity,[14]; 1.0E-07 M,115 % of control
same,Residual activity,[15]; 1.0E-06 M,85 % of control
same,Residual activity,[15]; 1.0E-07 M,84 % of control
same,Residual activity,[16]; 1.0E-06 M,91 % of control
same,Residual activity,[16]; 1.0E-07 M,116 % of control

# Source: PMC9329436, “Optimization of the 4-anilinoquin(az)oline scaffold as epidermal growth factor receptor (EGFR) inhibitors for chordoma utilizing a toxicology profiling assay platform” (Scientific Reports, 2022)
